Reference: patent US20190169691A1, “HERITABLE EPIGENETIC MODIFICATIONS AS MARKERS OF CHEMOTHERAPY EXPOSURE” (Washington State University, priority 2016, published 2019)
“And” between values parts separate entries of the source, which are not always exact repeats. Equal values may be shown once.

Test system: sperm
Experiment: Semen analysis: sperm number and seminal fluid parameters (CASA) after adolescent chemotherapy
Format: in vivo, human
Details: individual adult male osteosarcoma survivors, semen collected approximately ten years after chemotherapy at 14-20 years of age
Text: The patients were 19-30 year-old male survivors of osteosarcoma recruited from the Seattle Children's Hospital in Seattle Wash. and four collaborating institutions (Children's Hospital of Pennsylvania, Philadelphia, Pa.; Miller Children's, Long Beach, Calif.; Children's Hospital, University of Minnesota, Minneapolis, Minn.; and Children's Hospital, Vanderbilt University, Nashville, Tenn.). These men had been treated for their disease with cisplatin-based chemotherapy regimens, including ifosfamide in some cases, when they were 14-20 years of age. Each patient was recruited by in-clinic or mail recruitment protocols. […]
Each patient and control was asked to provide a semen sample via home seminal fluid collection, which we used to allow for ease of subject participation since the sample can be obtained without the individual traveling to a laboratory. […] For sperm concentration (per ml), each participant's semen was diluted and assessed by CASA (Computer Assisted Sperm Analysis). […] Although sperm motility was not assessed (because it requires a fresh sample), count and morphology data nonetheless provide a great deal of information regarding spermatogenesis and abnormalities and both are associated with an increased risk of infertility. […]

N.N.[Cl][Pt][Cl] [Cisplatin, cisplatin]
Sperm # (Total Millions): 100.2 Total Millions and 170.5 Total Millions and 178 Total Millions and 7.34 Total Millions and 21 Total Millions and 49 Total Millions and 55 Total Millions
